From ChEMBL document CHEMBL1140059, “Discovery of potent and selective small-molecule PAR-2 agonists” (J Med Chem, 2008) come the findings set out here.

The source made the active and inactive calls. The calls are words filed in the database; no cut-off is given here. Square brackets hold non-standard residues; d marks the D form. Peptide text beside a SMILES is read from it. * marks the point of attachment. Orn = NCCC[C@H](N)C(=O)O; 2Furoyl = O=C(c1ccco1)* Some results are limits rather than exact numbers.

The term EC50 denotes the concentration at which the effect is half-maximal. Usually microsomal CLint stands for the rate of metabolic loss divided by the concentration. A word on the solubility: it is how much of the substance goes into solution per volume.

Data set [1] has as its target Proteinase-activated receptor 2 (Homo sapiens) (UniProt P55085). Briefly: Agonist activity at human PAR2 expressed in HEK293T cells assessed as effect on intracellular calcium mobilization by R-SAT assay relative to SLIGRL-NH2. The class given is functional, cell-based. The following applies: HEK-293T. In general terms: A change in cytosolic calcium serves as a functional read-out for many receptors and channels.

The target in data set [2] is T1, Proteinase-activated receptor 2 (Homo sapiens, UniProt P55085).
T1 sequence (P55085 whole entry): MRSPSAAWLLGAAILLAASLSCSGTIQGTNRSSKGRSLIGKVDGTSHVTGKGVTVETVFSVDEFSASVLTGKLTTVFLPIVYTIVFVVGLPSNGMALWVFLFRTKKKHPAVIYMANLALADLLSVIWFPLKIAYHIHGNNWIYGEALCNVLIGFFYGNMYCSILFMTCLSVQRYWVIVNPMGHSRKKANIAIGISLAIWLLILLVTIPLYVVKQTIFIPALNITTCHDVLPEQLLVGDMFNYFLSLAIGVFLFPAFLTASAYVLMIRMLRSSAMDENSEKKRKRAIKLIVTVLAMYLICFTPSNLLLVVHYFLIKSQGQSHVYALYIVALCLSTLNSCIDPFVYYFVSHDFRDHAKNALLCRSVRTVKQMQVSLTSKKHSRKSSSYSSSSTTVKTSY
Briefly: Agonist activity at human PAR2 expressed in HEK293T cells assessed as effect on intracellular calcium mobilization by R-SAT assay. The class given is functional, cell-based, HEK-293T.

Data set [3] in a line: Metabolic stability in human liver microsomes assessed as intrinsic clearance. The class given is ADME, Microsome. In general terms: Microsomes from liver hold many membrane-bound enzymes, among them those of drug oxidation.
Data set [4] is described as follows: Metabolic stability in rat liver microsomes assessed as intrinsic clearance. The class given is ADME, Microsome.
Data set [5] in a line: Solubility in presence of 25% Tween. The class given is physicochemical.
Data set [6] has as its system Rattus norvegicus. Briefly: Induction nociception assessed as incidence of thermal hyperalgesia in intrapaw dosed rat. The class given is functional, organism-based.
Data set [7] addresses T2, Proteinase-activated receptor 4 (Homo sapiens) (UniProt Q96RI0).
T2 sequence (whole entry): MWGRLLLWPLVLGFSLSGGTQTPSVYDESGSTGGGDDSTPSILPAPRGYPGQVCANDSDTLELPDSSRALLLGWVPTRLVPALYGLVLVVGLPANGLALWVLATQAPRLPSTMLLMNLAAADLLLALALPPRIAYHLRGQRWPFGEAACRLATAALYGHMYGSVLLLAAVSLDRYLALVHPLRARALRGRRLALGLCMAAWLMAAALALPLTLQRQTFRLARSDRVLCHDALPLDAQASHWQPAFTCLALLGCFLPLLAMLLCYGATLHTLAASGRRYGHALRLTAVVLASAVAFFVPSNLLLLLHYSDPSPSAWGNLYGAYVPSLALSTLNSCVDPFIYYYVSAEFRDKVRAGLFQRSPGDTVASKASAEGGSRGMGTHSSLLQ
The data set can be described thus: Agonist activity at PAR4. The class given is functional.

Data set [8] has as its target T3, Proteinase-activated receptor 1 (Homo sapiens) (UniProt P25116).
T3 sequence (whole entry): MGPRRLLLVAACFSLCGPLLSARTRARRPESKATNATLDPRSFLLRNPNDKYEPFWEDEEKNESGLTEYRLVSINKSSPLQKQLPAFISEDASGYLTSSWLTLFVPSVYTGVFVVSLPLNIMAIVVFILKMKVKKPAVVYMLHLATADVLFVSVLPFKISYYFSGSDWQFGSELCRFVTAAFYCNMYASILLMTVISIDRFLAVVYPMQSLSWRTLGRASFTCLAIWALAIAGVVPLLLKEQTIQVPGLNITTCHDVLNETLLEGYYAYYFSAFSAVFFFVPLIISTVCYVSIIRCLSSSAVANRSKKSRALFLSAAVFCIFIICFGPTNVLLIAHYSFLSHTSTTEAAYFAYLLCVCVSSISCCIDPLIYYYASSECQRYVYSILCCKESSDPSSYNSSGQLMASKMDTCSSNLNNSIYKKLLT
Briefly: Agonist activity at PAR1. The class given is functional.

The target of data set [9] is T4, Proteinase-activated receptor 3 (Homo sapiens) (UniProt O00254).
T4 sequence (whole entry): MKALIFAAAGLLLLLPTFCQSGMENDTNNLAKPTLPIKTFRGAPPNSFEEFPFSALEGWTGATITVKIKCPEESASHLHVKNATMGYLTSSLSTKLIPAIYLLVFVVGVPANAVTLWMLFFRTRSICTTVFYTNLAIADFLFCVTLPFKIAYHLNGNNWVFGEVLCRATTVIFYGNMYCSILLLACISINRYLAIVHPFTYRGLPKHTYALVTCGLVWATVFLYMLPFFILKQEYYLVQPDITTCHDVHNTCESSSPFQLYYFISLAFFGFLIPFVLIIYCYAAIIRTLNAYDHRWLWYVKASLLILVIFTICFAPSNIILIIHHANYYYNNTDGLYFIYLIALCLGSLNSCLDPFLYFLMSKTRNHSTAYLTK
Briefly: Agonist activity at PAR3. The class given is functional.

Data set [10] relates to Rattus norvegicus. The data set can be described thus: Induction of inflammation assessed as incidence of paw edema in intrapaw dosed rat. The class given is functional, organism-based.
For data set [11], the target named is Proteinase-activated receptor 2 (Homo sapiens) (UniProt P55085). The data set can be described thus: Agonist activity at human PAR2 expressed in HEK293T cells assessed as effect on phosphatidyl inositol hydrolysis. The class given is functional, cell-based. Conditions: HEK-293T.

For the molecule `C/C(=N\NC(=O)[C@@H]1C(=O)NC[C@H]1c1cccc(Br)c1)c1cccc(Br)c1`, the Efficacy in data set [1] came to 82%. For the same molecule, the EC50 in data set [2] was 25.1 nM.
Turning to `O=C1NC[C@@H](c2ccccc2)[C@@H]1C(=O)N/N=C1\CCc2ccc(Br)cc21`, in [1], the Efficacy was 62%. In data set [2], the EC50 was 126 nM.
For `C/C(=N\NC(=O)[C@@H]1C(=O)NC[C@H]1c1ccccc1)c1cccc(Br)c1` (stereo in doubt; 3) [listing 1 of 2 here], the results for the microsomal CLint in data set [3] and in data set [4] were 9 µL/min/mg and 37 µL/min/mg, respectively. The solubility in [5] was over 2000 µg/mL. In data set [2], the EC50 is 31.6 nM.
`C/C(=N\NC(=O)C(NC(=O)c1ccccc1)c1n[nH]c(=O)c2ccccc12)c1cccc(Br)c1` (stereo not given): the microsomal CLint in data set [3] turned out to be 19 µL/min/mg; in data set [4], 6 µL/min/mg. Further, the Activity entry with Rattus norvegicus [6] and in the data set on Rattus norvegicus [10] was “Dose-dependent effect” in each case. Besides, the outcome in data set [7], in data set [8] and in [9] was inactive. In addition, the Efficacy in [1] was found to be 81%. The EC50 in [2] was 200 nM. Besides, in data set [11], the result was Active.
With `CC[C@H](C)[C@H](NC(=O)[C@H](CC(C)C)NC(=O)c1ccco1)C(=O)NCC(=O)N[C@@H](CCCNC(=N)N)C(=O)N[C@@H](CC(C)C)C(=O)N[C@@H](CCCN)C(N)=O` (2Furoyl-LIGRL[Orn]-NH2), the Efficacy in [1] worked out at 89%.
Consider `CC(C)=CN1C[C@@H](c2ccccc2)[C@H](C(=O)N/N=C(\C)c2cccc(Br)c2)C1=O`, for which, in data set [1], the Efficacy was 72%. Moreover, the EC50 in data set [2] was 50.1 nM.
`C/C(=N\NC(=O)[C@@H]1C(=O)NC[C@H]1c1ccccc1)c1cccc(Br)c1` (stereo in doubt; 3) [listing 2 of 2 here]: the Activity result with Rattus norvegicus [6] and in the data set with Rattus norvegicus [10] was “Dose-dependent effect” throughout. For the same molecule, the result in data set [7], in [8] and in [9] was inactive. For the same molecule, the Efficacy in [1] was determined as 93%. Further, the result in [11] was Active.
In the case of `CC[C@H](C)[C@H](NC(=O)[C@H](CC(C)C)NC(=O)c1ccco1)C(=O)NCC(=O)N[C@@H](CCCN=C(N)N)C(=O)N[C@@H](CC(C)C)C(=O)N[C@@H](CCCN)C(N)=O` (2Furoyl-LIGRL[Orn]-NH2), the concentration giving a half-maximal response (EC50) in data set [2] is 25.1 nM.
`C/C(=N\NC(=O)[C@@H]1C(=O)NC[C@H]1c1ccccc1)c1cccs1`: the Efficacy in data set [1] was 30%. In data set [2], the EC50 is 6310 nM.
In the case of `C/C(=N\NC(=O)[C@@H]1C(=O)NC[C@H]1c1ccccc1)c1cccc(Br)c1` (stereo in doubt; (-)-3) [listing 1 of 2 here], the EC50 in data set [2] was over 10000 nM.
Regarding `C/C(=N\NC(=O)[C@@H]1C(=O)NC[C@H]1c1ccccc1)c1cccc(Br)c1` (stereo in doubt; (+)-3) [listing 1 of 2 here], the EC50 in data set [2] was 31.6 nM.
In the case of `C/C(=N\N(C)C(=O)[C@@H]1C(=O)NC[C@H]1c1ccccc1)c1cccc(Br)c1`, the Efficacy in [1] turned out to be 35%. Besides, in data set [2], the EC50 was 6310 nM.
With `C/C(=N\NC(=O)[C@@H]1C(=O)NC[C@H]1c1ccccc1)c1cccc(Br)c1` (stereo in doubt; (-)-3) [listing 2 of 2 here], the Efficacy in data set [1] was determined as 10%.
H-SLIGRL-NH2: the Efficacy in data set [1] is 100%. In addition, in [2], the EC50 was 10000 nM.
With `C/C(=N\NC(=O)[C@@H]1C(=O)NC[C@H]1c1ccccc1)c1ccc(Br)cc1`, the Efficacy in data set [1] turned out to be 32%. The EC50 in data set [2] is 7940 nM.
`C/C(=N\NC(=O)[C@@H]1C(=O)NC[C@H]1c1ccccc1)c1cccc(Br)c1` (stereo in doubt; (+)-3) [listing 2 of 2 here]: the Efficacy in [1] turned out to be 91%.
Take `C/C(=N\NC(=O)[C@@H]1C(=O)NC[C@H]1c1ccccc1)c1ccccc1Br`: in [1], the Efficacy was 11%. The EC50 in [2] was 10000 nM.
For the molecule `C/C(=N\NC(=O)[C@@H]1C(=O)NC[C@H]1c1ccccc1)c1ccc(Br)s1`, the Efficacy in [1] is 49%. Moreover, the EC50 in data set [2] was 2510 nM.
